Measurements as given in patent US10052331B2, “3-(3H-imidazo[4,5-C]pyridin-2-yl)-1H-pyrazolo[3,4-C]pyridine and therapeutic uses thereof” (Samumed, LLC, priority 2014, dated 2018).

Key:
[1] = test system: primary human fibroblasts derived from IPF patients (LL29 cells); assay: Inhibition of fibrotic process: αSMA staining in TGF-β1-treated primary human fibroblasts from IPF patients (LL29 cells); format: cell-based; conditions: Fibroblast, 96 h, LL29 cells treated with TGF-β1 (20 ng/mL), 4 days, 11-point dose-response from 10 μM to 1.87 nM, read-out: Inhibition of fibrosis EC50
Text: The above synthesized compounds were screened using primary human fibroblasts (derived from IPF patients) treated with TGF-β1 to determine their ability to inhibit the fibrotic process.
Primary human fibroblasts derived from IPF patients (LL29 cells) [^1Xiaoqiu Liu, et. al., “Fibrotic Lung Fibroblasts Show Blunted Inhibition by cAMP Due to Deficient cAMP Response Element-Binding Protein Phosphorylation”, Journal of Pharmacology and Experimental Therapeutics (2005), 315(2), 678-687; ^2Watts, K. L., et. al., “RhoA signaling modulates cyclin D1 expression in human lung fibroblasts; implications for idiopathic pulmonary fibrosis”, Respiratory Research (2006), 7(1), 88] were obtained from American Type Culture Collection (ATCC) and expanded in F12 medium supplemented with 15% Fetal Bovine Serum and Penicillin/Streptomycin.
Each compound was dissolved in DMSO as a 10 mM stock and used to prepare compound source plates. Serial dilution (1:2, 11-point dose-response curves from 10 μM to 1.87 nM) and compound transfer was performed using the ECHO 550 (Labcyte, Sunnyvale, Calif.) into 384-well clear bottom assay plates (Greiner Bio-One) with appropriate DMSO backfill for a final DMSO concentration of 0.1%. LL29 cells were plated at 1,500 cells/well in 80 μl/well F12 medium supplemented with 1% Fetal Bovine Serum. One hour after addition of the cells, TGF-β1 (Peprotech; 20 ng/mL) was added to the plates to induce fibrosis (ref. 1 and 2 above). Wells treated with TGF-β1 and containing DMSO were used as controls. Cells were incubated at 37° C. and 5% CO2 for 4 days. Following incubation for 4 days, SYTOX green nucleic acid stain (Life Technologies [Thermo Fisher Scientific]) was added to the wells at a final concentration of 1 uM and incubated at room temperature for 30 min. Cells were then fixed using 4% formaldehyde (Electron Microscopy Sciences), washed 3 times with PBS followed by blocking and permeabilization using 3% Bovine Serum Albumin (BSA; Sigma) and 0.3% Triton X-100 (Sigma) in PBS. Cells were then stained with antibody specific to α-smooth muscle actin (αSMA; Abcam) (ref. 1 and 2 above) in 3% Bovine Serum Albumin (BSA; Sigma) and 0.3% Triton X-100 (Sigma) in PBS, and incubated overnight at 4° C. Cells were then washed 3 times with PBS, followed by incubation with Alexa Flor-647 conjugated secondary antibody (Life Technologies [Thermo Fisher Scientific]) and DAPI at room temperature for 1 hour. Cells were then washed 3 times with PBS and plates were sealed for imaging. αSMA staining was imaged by excitation at 630 nm and emission at 665 nm and quantified using the Compartmental Analysis program on the CellInsight CX5 (Thermo Scientific). Dead or apoptotic cells were excluded from analysis based on positive SYTOX green staining. % of total cells positive for αSMA were counted in each well and normalized to the average of 11 wells treated with TGF-β1 on the same plate using Dotmatics' Studies Software. The normalized averages (fold change over untreated) of 3 replicate wells for each compound concentration were used to create dose-responses curves and EC50 values were calculated using non-linear regression curve fit in the Dotmatics' Studies Software. The EC50 values are reported.

[2] = test system: Wnt activity (Wnt-responsive Sp5 promoter-luciferase reporter in SW480 cells); assay: Wnt activity screening assay: Sp5-Luc reporter gene in SW480 colon carcinoma cells; format: cell-based; conditions: Homo sapiens
Text: The screening assay for Wnt activity is described as follows. Reporter cell lines can be generated by stably transducing cancer cell lines (e.g., colon cancer) or primary cells (e.g., IEC-6 intestinal cells) with a lentiviral construct that includes a Wnt-responsive promoter driving expression of the firefly luciferase gene.
SW480 colon carcinoma cells were transduced with a lentiviral vector expressing luciferase with a human Sp5 promoter consisting of a sequence of eight TCF/LEF binding sites. SW480 cells stably expressing the Sp5-Luc reporter gene and a hygromycin resistance gene were selected by treatment with 150 μg/ml of hygromycin for 7 days. These stably transduced SW480 cells were expanded in cell culture and used for all further screening activities. For Sp5-Luc reporter gene assays, the cells were plated at 10,000 cells/well in 96-well plates with growth medium containing 10% fetal calf serum and incubated overnight at 37° C. and 5% CO2. Each compound was dissolved in DMSO as a 10 mM stock in standard j-vials and used to prepare compound source plates in dose-response format with 3-fold serial dilutions and a 10 mM top concentration. Compound transfer from serially diluted source plates to assay plates containing the cells was accomplished using a pintool (Multimek 96, Beckman equipped with V&P Scientific FP1S50H pins) based liquid handling protocol. This protocol used a slotted pin to transfer 50 nl of compound from a source plate well to an assay plate well containing 50 μl of cells in growth medium. […] Control wells received 50 nl of DMSO treatment for normalization and calculating IC50 values. The treated cells were incubated at 37° C. and 5% CO2 for an additional forty-two hours. Following incubation, the growth medium was removed and 50 μl of BrightGlo luminescence reagent (Promega) was added to each well of the 96-well assay plates. The plates were placed on an orbital shaker for 5 min and then luminescence was quantified on the Victor3 (Perkin Elmer) plate reader. Readings were normalized to DMSO only treated cells, and normalized activities were utilized for IC50 calculations using the dose-response log (inhibitor) vs. response-variable slope (four parameters) nonlinear regression feature available in GraphPad Prism 5.0 or 6.0.

Structure (SMILES)	EC50 [1] [nM]	IC50 [2] [nM]
CN(C)c1cncc(-c2cc3c(-c4nc5c(-c6cccc(F)c6)cncc5[nH]4)n[nH]c3cn2)c1 [Compound 7, 5-(3-(7-(3-Fluorophenyl)-3H-imidazo[4,5-c]pyridin-2-yl)-1H-pyrazolo[3,4-c]pyridin-5-yl)-N,N-dimethylpyridin-3-amine]	≤ 9	71.8
CC(C)(C)C(=O)Nc1cncc(-c2cc3c(-c4nc5c(-c6cccc(F)c6)cncc5[nH]4)n[nH]c3cn2)c1 [Compound 8, N-(5-(3-(7-(3-Fluorophenyl)-3H-imidazo[4,5-c]pyridin-2-yl)-1H-pyrazolo[3,4-c]pyridin-5-yl)pyridin-3-yl)pivalamide]	47	41.1
CN(C)Cc1cncc(-c2cc3c(-c4nc5c(-c6cccc(F)c6)cncc5[nH]4)n[nH]c3cn2)c1 [Compound 13, 1-(5-(3-(7-(3-Fluorophenyl)-3H-imidazo[4,5-c]pyridin-2-yl)-1H-pyrazolo[3,4-c]pyridin-5-yl)pyridin-3-yl)-N,N-dimethylmethanamine]	≤ 9	80.1
CCCCC(=O)Nc1cncc(-c2cc3c(-c4nc5c(-c6cccc(F)c6)cncc5[nH]4)n[nH]c3cn2)c1 [Compound 18, N-(5-(3-(7-(3-Fluorophenyl)-3H-imidazo[4,5-c]pyridin-2-yl)-1H-pyrazolo[3,4-c]pyridin-5-yl)pyridin-3-yl)pentanamide]	143	29.4
Fc1cccc(-c2cncc3[nH]c(-c4n[nH]c5cnc(-c6cncc(CN7CCC(F)(F)C7)c6)cc45)nc23)c1 [Compound 25, 5-(5-((3,3-Difluoropyrrolidin-1-yl)methyl)pyridin-3-yl)-3-(7-(3-fluorophenyl)-3H-imidazo[4,5-c]pyridin-2-yl)-1H-pyrazolo[3,4-c]pyridine]	≤ 9	31.1
Fc1ccc(-c2cncc3[nH]c(-c4n[nH]c5cnc(-c6cncc(CN7CCCC7)c6)cc45)nc23)cc1 [Compound 40, 3-(7-(4-Fluorophenyl)-3H-imidazo[4,5-c]pyridin-2-yl)-5-(5-(pyrrolidin-1-ylmethyl)pyridin-3-yl)-1H-pyrazolo[3,4-c]pyridine]	1770	1060
CCCC(=O)Nc1cncc(-c2cc3c(-c4nc5c(-c6ccc(F)cc6)cncc5[nH]4)n[nH]c3cn2)c1 [Compound 43, N-(5-(3-(7-(4-Fluorophenyl)-3H-imidazo[4,5-c]pyridin-2-yl)-1H-pyrazolo[3,4-c]pyridin-5-yl)pyridin-3-yl)butyramide]	76	76.7
CCCCC(=O)Nc1cncc(-c2cc3c(-c4nc5c(-c6ccc(F)cc6)cncc5[nH]4)n[nH]c3cn2)c1 [Compound 44, N-(5-(3-(7-(4-Fluorophenyl)-3H-imidazo[4,5-c]pyridin-2-yl)-1H-pyrazolo[3,4-c]pyridin-5-yl)pyridin-3-yl)pentanamide]	75	164
Fc1ccc(-c2cncc3[nH]c(-c4n[nH]c5cnc(-c6cncnc6)cc45)nc23)cc1 [Compound 52, 3-(7-(4-Fluorophenyl)-3H-imidazo[4,5-c]pyridin-2-yl)-5-(pyrimidin-5-yl)-1H-pyrazolo[3,4-c]pyridine]	1200	179
Nc1cncc(-c2cc3c(-c4nc5c(-c6ccccc6F)cncc5[nH]4)n[nH]c3cn2)c1 [Compound 55, 5-(3-(7-(2-Fluorophenyl)-3H-imidazo[4,5-c]pyridin-2-yl)-1H-pyrazolo[3,4-c]pyridin-5-yl)pyridin-3-amine]	≤ 9	70.4
CC(C)CC(=O)Nc1cncc(-c2cc3c(-c4nc5c(-c6cc(F)cc(OCCN7CCCC7)c6)cncc5[nH]4)n[nH]c3cn2)c1 [Compound 1236, N-(5-(3-(7-(3-Fluoro-5-(2-(pyrrolidin-1-yl)ethoxy)phenyl)-3H-imidazo[4,5-c]pyridin-2-yl)-1H-pyrazolo[3,4-c]pyridin-5-yl)pyridin-3-yl)-3-methylbutanamide]		> 10000
